The results in this text go back to a melting point compilation (Tetko et al.; mined from patent text by program, amines drawn as free bases though some values may be those of a salt).

In general, melting point refers to the temperature, or range, at which the solid turns liquid.

For the molecule `CCOC(=O)[C@H](Cc1ccc(O)cc1)NC(=O)c1c(Cl)cccc1Cl`, the melting point lay in the range of 141 to 142 °C. Next, `CCCCCCCCCCCCCCCCCCOCC(O)COC(c1ccccc1)(c1ccccc1)c1ccccc1` (stereo not given): 53 to 55 °C.

`CC(=O)OCC1(C)SC2C(NC(=O)Cc3ccccc3)C(=O)N2C1C(=O)OCC(Cl)(Cl)Cl` (stereo not given) gave a melting point of 116 to 118 °C. Next, `NC(Oc1ccccc1)C(O)CCCNc1ccc(Br)cc1` (stereo not given): 106 to 110 °C; `CCOCn1nccc1C(=O)c1ccc(OCC(=O)O)c(Cl)c1Cl`: 148 to 149 °C. Next, `CCOC(=O)c1c(C)nn(-c2cccc(N)c2)c1C`: 93 to 95 °C; `Fc1ccc(-c2cn(CCC#Cc3ccccn3)nn2)cc1`: 120 to 122 °C.

Regarding `Cn1nc(C(=O)NCc2ccc(Cl)cc2)c(=O)c2cc(I)cnc21`, the melting point is 207 to 208 °C. `CN(Sc1nc2ccccc2s1)C(C)(C)C` yielded a melting point of 56 to 58 °C. The result for `CC(=O)Nc1ccc(OC(C)=O)c(C(=O)O)c1` reads 196 to 198 °C; that for `O=C(Nc1ccc(Cl)cc1)N(CCCN1CCC(Cc2ccccc2)CC1)c1ccc(Cl)c(Cl)c1`, 128 to 131 °C.

With `Clc1ccc(OCc2ccc(Cl)s2)cc1`, the melting point fell in the range of 48 to 49 °C. Next, `Nc1nc(NCc2ccccc2)nc(C(F)(F)F)n1`: 183 to 185 °C; `CN1CCN(c2c(F)c(N)c3c(=O)c(C(=O)O)cn(C4CC4)c3c2F)CC1`: 247 to 248 °C.

Take `CCOC(=O)c1cn(CC)c2nc(SC)ncc2c1=O`: the melting point came to 148 °C. Next, `COc1cn(C(C)c2ccccc2)c(=O)o1` (stereo not given): 49 to 52 °C. The result for `COc1ccccc1CS(=O)(=O)Cc1ccccc1OC` reads 90 to 92 °C; that for `CC(C)(c1cc(F)cc([N+](=O)[O-])c1O)c1cc(Cl)cc([N+](=O)[O-])c1O`, 160 °C. Next, `O=[N+]([O-])c1cccc(C(O)CN2CCNC2=S)c1` (stereo not given): 163 °C; `O=C(O)C1=Cc2cc(Cl)c(Oc3cccc(Cl)n3)cc2OC1C(F)(F)F` (stereo not given): 226 to 227 °C; `Cc1nn(C)c(NCC(C)(C)C)c1NCc1ccc(F)cc1`: 32 to 39 °C.

In the case of `C[C@@H]1CN(c2ccc(-c3[nH]nc4c3C(=O)c3c(NC(=O)NN5CCOCC5)cccc3-4)cc2)C[C@H](C)N1C`, the melting point turned out to be 240 °C.

With `O=c1nc(-c2ccccn2)sc2ccc(Cl)cc12`, the melting point is 269 to 270 °C. The result for `CSCCCC1(C(=S)N[C@@H](Cc2ccc(NC(=O)c3c(Cl)cccc3Cl)cc2)C(=O)O)CCC1` reads 186 to 188 °C; that for `CCCCCCCCCCCCCCCCOCC(CO)OC` (stereo not given), 56 °C; that for `Cc1cc(Cl)ccc1Oc1ccc([N+](=O)[O-])cc1C#N`, 144 to 146 °C. The molecule `CSc1ccc(C2(C(C)=O)C=CC=CC2)cc1` (stereo not given) came in with a melting point of 182 to 184 °C. Next, `Cc1nc(-n2ccc(OCc3ccc(C(F)(F)F)o3)cc2=O)sc1C(=O)NCc1cccnc1`: 240 to 242 °C; `N#CC1c2ccccc2C(Nc2ccc(Cl)cc2)=NN1C(=O)c1ccccc1` (stereo not given): 201 to 202 °C; `CCN1C(=O)C(C)(C)C(=O)N(C)c2cc(CN(CCn3c(=O)ccc4ccccc43)Cc3ccc(C)nc3C)ccc21`: 159 to 160 °C.

Turning to `COC(=O)CN(Cc1ccccc1N)S(=O)(=O)c1ccc(OC)cc1`, the melting point was in the range of 100 to 102 °C. Next, `Cc1cccc(NC(=O)NC2N=C(c3ccccc3F)c3ccccc3N(Cc3ncccc3C)C2=O)c1` (racemic): 216 to 217 °C; `CCS(=O)(=O)N[C@H](C(=O)NCCc1ccc(OCc2ccccc2)cc1)C(C)C`: 133 to 134 °C; `CC(=O)C1(c2cccc(OCc3ccc4c(ccc(=O)n4C)c3)c2)CCOCC1`: 125 to 126 °C. `Cc1nn(C)c(F)c1C(=O)Nc1ccccc1C(C)CC(C)(C)C` (stereo not given) registered a melting point of 78 to 80 °C.

`O=C(NCCc1cccc2ccc(OC3C=CCCC3)cc12)C1CCC1` (stereo not given) displayed a melting point of 104 to 106 °C.

In turn, `Cc1nc2cc(-n3cccc3)ccc2o1` showed a melting point of 115 to 121 °C. The result for `O=C(O)Cc1c(-c2ccccc2)nn(-c2ccc(Cl)cc2)c1-c1ccccc1` reads 193 to 194 °C; that for `CC(C)(Cc1c(Sc2ccccc2)c2cc(F)ccc2n1Cc1ccc(Cl)cc1)C(=O)O`, 162 to 163 °C; that for `Cc1cc([N+](=O)[O-])c(O)c(Cl)c1C`, 62 to 63 °C. Next, `COc1ccc(C2Sc3cc(Cc4ccc(C)s4)ccc3N(CCN(C)C)C(=O)C2OC(C)=O)cc1` (stereo not given): 131 to 134 °C; `CC(C)(C)C1=NN(c2ccc(C(=O)O)cc2)C(c2ccccc2)C1` (stereo not given): 233 °C; `CS(=O)(=O)c1ccc(Oc2cc(OC3CCOCC3)c3[nH]c(C4=NCC(CCO)S4)cc3c2)cc1` (stereo not given): 116 to 117 °C.

In turn, `Cc1nn2c(-c3cccc(NC(=O)OC(C)C)c3)ccnc2c1C(=O)c1cccs1` displayed a melting point of 186 to 188 °C. The molecule `N#Cc1cccc(C=O)c1[N+](=O)[O-]` came in with a melting point of 109 to 111 °C. `O=CC1CC(O)c2ccccc2C1O` (stereo not given) gave a melting point of 145 °C. Next, `Cc1c(NC(=O)C(CSC(=O)c2cccnc2)Cc2ccccc2)cccc1C(=O)O` (stereo not given): 80 to 86 °C.

Consider `CSc1cn(C)cc(-c2cccc(C(F)(F)F)c2)c1=O`, for which the melting point was in the range of 121 to 122 °C. The result for `ON=Cc1sc(Cl)nc1Cl` reads 160 °C; that for `CCCc1nc2c(N)nc3ccccc3c2n1CCC(=O)N1CCOCC1`, 172 to 173 °C; that for `CCOC(=O)c1cnc(-c2cc([N+](=O)[O-])ccc2OCC)[nH]c1=O`, 222 to 224 °C. The result for `C[C@@H]1C(=O)N(c2ccc(C#N)c(Cl)c2)[C@@H](C)[C@H]1O` reads 149 to 151 °C. Take `Cc1cccc(C)c1N(C(C)CCl)S(C)(=O)=O` (stereo not given): the melting point lay within 126 to 128 °C. The result for `O=C1NC(=O)c2c3ccccc3cc3cccc1c23` reads 310 °C; that for `FC(F)(F)c1cccc(Nc2nc(Cl)nc3nc[nH]c23)c1`, 248 to 250 °C; that for `CC(Cc1c[nH]c2ccccc12)(NC(=O)OC1C2CC3CC(C2)CC1C3)C(=O)NC1(C(=O)O)CCCCC1` (stereo not given), 203 to 208 °C. Next, `COC(=O)c1cc(COc2nn(-c3ccccc3)cc2C=O)ccc1OCc1nc(-c2ccco2)oc1C`: 173 to 174 °C; `CC1(C)C=C(NC=NC#N)c2cc(C#N)ccc2O1`: 159 to 161 °C; `CCOC(=O)COc1ccc(NS(C)(=O)=O)cc1OC`: 118 to 119 °C. The result for `CCOC(=O)ON(C(=O)NC)c1ccc(Cl)c(Cl)c1` reads 97 to 98 °C; that for `CCC1(C)C(=O)N(C(C)C)CC(C)(C)N1OC(C)(C)C#N` (stereo not given), 106 to 108 °C; that for `CC(=NOCCOc1ccc(CC2SC(=O)NC2=O)cc1)c1cc(C)c(O)c(C)c1` (stereo not given), 53 to 65 °C.

`C[C@H](NS(=O)(=O)c1ccc(-c2c(C#N)c3cc(F)c(OC(F)F)cc3n2C2CCC2)nc1)C(F)(F)F` returned a melting point of 172 to 175 °C.

`CC(C)(C)OC(=O)C(=NO)C1=Nc2ccc(Cl)cc2C(c2ccccc2F)=NC1` yielded a melting point of 212 to 214 °C. The result for `OC/C=C/c1ccc(C(F)(F)F)cc1` reads 53 to 55 °C; that for `CCOC(=O)c1cc(-c2ccccc2)oc1-c1ccc(OC)c(OC)c1`, 68 °C.

`CCOC(=O)N(C)N(C)C(=S)Nc1cc(Cl)cc(Cl)c1` came in with a melting point of 147 to 149 °C. With `COc1cc(OC)nc(NC(=O)NS(=O)(=O)c2c(C(=O)C3CC3)cnn2C)n1`, the melting point was 189 to 192 °C. Next, `CCOC(=O)[C@H](Cc1cc(O)c(O)cc1I)NC=O`: 131 to 132 °C; `O=C(O)c1cnc2c3cc(NC(=O)C4CCCCC4)ccc3ncn2c1=O`: 311 to 314 °C; `C=CCN1CCc2nc(NCC)nc(-c3ccc(Cl)cc3)c2C1`: 104 to 106 °C. The result for `O=c1c2c(Cc3cccc(C(F)(F)F)c3)n[nH]c2c2cccnc2n1-c1cccc(C(F)(F)F)c1` reads 206 to 208 °C. The result for `CCC(C)C(NC(=O)C(C)CS)C(=O)O` (stereo not given) reads 164 °C; that for `COc1cc(OCc2cn(-c3ccc(C(F)(F)F)cn3)nc2C)ccc1CCC(=O)O`, 158 to 159 °C; that for `CC12CCC1C(=O)OC2=O` (stereo not given), 59 to 60 °C.

As to `COc1ccc(-c2ocnc2-c2cc(OC)c(OC)c(OC)c2)cc1F`, the melting point lay within 139 to 140 °C. Consider `Cc1nc(C2(C)CC2(Cl)Cl)nn1-c1c(Cl)cc(C(F)(F)F)cc1Cl` (stereo not given), for which the melting point lay within 107 to 116 °C. On to `Cc1c(NC(=O)C(CS)Cc2ccccc2)cccc1C(=O)O` (stereo not given), for which the melting point was 179 to 181 °C. The result for `CC1(c2ccccc2)OC(C=Cc2ccncc2)=CC1=O` (stereo not given) reads 165 to 166 °C. Next, `CCOC(=O)Cc1nc2cc(Cl)ccc2n1CC`: 44 to 45 °C. The result for `OCC=Cc1cccc(-c2nnn[nH]2)c1` reads 174 °C. In turn, `CC1CCN(c2cc3nc(C(C)(C)C)sc3cc2N)CC1` returned a melting point of 146 to 148 °C.

As for `CC(C)(C)c1cc(-c2nn(Cc3cccc(C(F)(F)F)c3)c3ncccc23)cc(C(C)(C)C)c1O`, the melting point is 160 to 163 °C. Next, `Cc1cccc(NC(=O)Cn2c3c(c4c(Cl)c(Cl)ccc42)CCN(C(=O)OC(C)(C)C)CC3)c1C`: 232 to 233 °C; `O=C(O)C1c2ccccc2CCc2cc(Br)ccc21` (stereo not given): 129 to 131 °C; `CC(C)(CO)c1ccc(C(=O)O)cc1`: 154 to 156 °C.

The molecule `CCc1c(-c2cc(C)c(O)c(C)c2)[nH]c2ccccc12` displayed a melting point of 107 °C. For `O=C(O)Cn1cccc1`, the melting point lay in the range of 88 to 90 °C. Consider `Cc1ccc(-c2ncc(N3CCC(O)CC3)nc2-c2ccc(C)cc2)cc1`, for which the melting point fell in the range of 176 to 178 °C. Next, `O=C(Nc1ccc(C(=O)N2Cc3ccccc3Cc3ccccc32)cc1)c1ccccc1OC(F)(F)F`: 232 to 235 °C.
